Data set [1] is described as follows: Selectivity index, ratio of IC50 for cytotoxicity against rat L6 cells to IC50 for Antimalarial activity against Plasmodium falciparum K1 strain. Format: toxicity, cell-based. The conditions noted are these: read-out: Selectivity Index.
Data set [2] has as its system Plasmodium falciparum. Kind of data set: Antimalarial activity against Plasmodium falciparum K1 strain. It is filed as functional, organism-based.
Data set [3] deals with Candida albicans. Kind of data set: Antimicrobial activity against Candida albicans. Format: functional.
Data set [4] has as its system Cryptococcus neoformans. Description: Antimicrobial activity against Cryptococcus neoformans. It is filed as functional.
For data set [5], the system named is Staphylococcus aureus. Description: Antimicrobial activity against Staphylococcus aureus. Format: functional.
Data set [6] relates to Mycolicibacterium fortuitum. Kind of data set: Antibacterial activity against Mycobacterium fortuitum ATCC 6841. Format: functional.
Data set [7] concerns Mycolicibacterium smegmatis. Description: Antibacterial activity against Mycobacterium smegmatis ATCC 14468. Format: functional.
The test system of data set [8] is Mycolicibacterium smegmatis. Description: Antibacterial activity against Mycolicibacterium smegmatis MC2 2700. It is filed as functional.
For data set [9], the system named is Mycolicibacterium phlei. Kind of data set: Antibacterial activity against Mycolicibacterium phlei ATCC 11758. It is filed as functional.
Data set [10] has as its system Staphylococcus aureus. Kind of data set: Antibacterial activity against Staphylococcus aureus 1199B. It is filed as functional.
The subject of data set [11] is Staphylococcus aureus. Description: Antibacterial activity against Staphylococcus aureus XU212. Format: functional.
For data set [12], the system named is Staphylococcus aureus. Kind of data set: Antibacterial activity against Staphylococcus aureus EMRSA-15. Format: functional.
The subject of data set [13] is Human immunodeficiency virus 1. Kind of data set: Antiviral activity against HIV1. It is filed as functional, organism-based.
Data set [14] has as its system HL-60. Kind of data set: Cytotoxicity against human HL-60 cells. Format: functional, cell-based.
The target of data set [15] is Alpha-glucosidase (Saccharomyces cerevisiae S288c, UniProt P53341+P38158+P07265). Kind of data set: Inhibition of Saccharomyces cerevisiae alpha-glucosidase activity using pNPG as substrate. It is filed as protein assay.
The subject of data set [16] is Micrococcus luteus. Description: Antibacterial activity against Sarcina lutea. It is filed as functional.
For data set [17], the system named is dengue virus type 2. Description: Antiviral activity against DENV-2 strain New Guinea C infected in Vero cells assessed as reduction in virus yield measured after 48 hrs. It is filed as functional, organism-based.
In data set [18] the test system is Bacillus subtilis. Kind of data set: Antibacterial activity against Bacillus subtilis. Format: functional.
Data set [19] deals with Corynebacterium xerosis. Description: Antibacterial activity against Corynebacterium xerosis. It is filed as functional.
Data set [20] has as its system Human immunodeficiency virus 1. Description: Antiviral activity against HIV1 IIIB infected in human C8166 cells assessed as reduction in virus-induced cytopathic effect measured after 3 days by Syncytia assays. Format: functional, organism-based. The note with it: Human immunodeficiency virus 1, IIIB, C8166, 72 h.
Data set [21] relates to KB. Description: Cytotoxicity against human KB cells. It is filed as functional. The note with it: read-out: ED50 (the source's name).
The test system of data set [22] is MDA-MB-231. Description: Cytotoxicity against human MDA-MB-231 cells. Format: functional, cell-based.
Data set [23] concerns Trypanosoma brucei brucei. Kind of data set: Antitrypanosomal activity against Trypanosoma brucei brucei. Format: functional, organism-based.
The subject of data set [24] is Plasmodium falciparum. Kind of data set: Antimalarial activity against Plasmodium falciparum. It is filed as functional, organism-based.

In brackets after ≈: the same amount, converted by molar mass.

For orientation: IC50 means the concentration at which inhibition is half-maximal. In the case of `C[n+]1ccc2c(c1)[nH]c1ccc(Cl)cc12` [NOSTOCARBOLINE], the selectivity ratio in [1] is 2500. For the same compound, 0.018 µM corresponded to half-maximal inhibition in [2] (IC50).

A word on the MIC: it is the least concentration at which growth counts as inhibited. Low readings indicate greater potency, high ones weaker potency. With `CSc1c(C2=C(c3c[nH]c4ccc(O)cc34)C(=O)N3c4ccc(O)cc4C4C=CN=C2C43)n(C)c[n+]1C` (centres undefined), the MIC in [3], in data set [4] and in data set [5] was 4 µg/mL each time.

On to `N=C(N)NCCC[C@H]1NCCc2c1[nH]c1cc(Br)ccc21`, for which the MIC was found to be 16 µg/mL (≈ 45.7 µM) in data set [6]; 16 µg/mL (≈ 45.7 µM) in [7]; 2 µg/mL (≈ 5.71 µM) in [8]; 8 µg/mL (≈ 22.8 µM) in data set [9]; 16 µg/mL (≈ 45.7 µM) in data set [10]; 8 µg/mL (≈ 22.8 µM) in [11]. The same compound returned an MIC in data set [12] of 64 µg/mL (≈ 183 µM).

As to `O[C@]12C=C(c3nccc4c3[nH]c3ccccc34)[C@@H]3CCN(CCCC/C=C\CC1)C[C@@]31C[C@@H]3/C=C\CCCCN3[C@H]12` [MANZAMINE A], the IC50 in data set [13] is 4.2 µM.

On to `COc1ccc2c3c([nH]c2c1)[C@]12CC(C)(C)[C@@]4(C(=O)N1CC3)c1[nH]c3cc(OC)ccc3c1CCN24`, for which the IC50 in data set [14] came to 5.8 µM.

As for `O=C(CO)CCC(=O)c1nc(C(=O)O)cc2c1[nH]c1ccccc12`, in data set [15], the IC50 worked out at 63.3 µg/mL (≈ 194 µM).

Turning to `O=c1ccc2nccc3c4ccccc4n1c23` [CANTHIN-6-ONE], the MIC in data set [6] was 16 µg/mL (≈ 72.7 µM); in [7] it was 8 µg/mL (≈ 36.3 µM); in data set [8], 8 µg/mL (≈ 36.3 µM); in [9] it was 8 µg/mL (≈ 36.3 µM); in [10] it was 8 µg/mL (≈ 36.3 µM); in data set [11], 8 µg/mL (≈ 36.3 µM). The same compound returned an MIC in data set [12] of 32 µg/mL (≈ 145 µM).

`Oc1cccc2c3c([nH]c12)C(C1=C[C@@]2(O)CC/C=C\CCCCN4CC[C@@H]1[C@]1(C[C@@H]5/C=C\CCCCN5[C@H]12)C4)=NCC3`: it took 4 µg/mL (≈ 7.06 µM) to inhibit growth in data set [16] (MIC).

For the compound `COc1ccc2c3ccnc(C)c3n(C)c2c1`, the EC50 in [17] amounted to 3.2 µM.

As to `O[C@H]1[C@H]2[C@@H]3c4[nH]c5ccccc5c4CCN3CN3CCCC/C=C\CC[C@@]45CN(CCCC/C=C\CC[C@@]1(O)[C@H]34)CC[C@@H]25`, the MIC in data set [16] was found to be 2.8 µg/mL (≈ 4.79 µM); in data set [18], 2.8 µg/mL (≈ 4.79 µM); in data set [19] it was 5.7 µg/mL (≈ 9.75 µM).

As to `Oc1cccc2c1[nH]c1c(C3=C[C@@]4(O)CC/C=C\CCCCN5CC[C@@H]3[C@]3(C[C@@H]6/C=C\CCCCN6[C@H]34)C5)nccc12`, inhibition of growth in [16] (MIC) required 0.91 µg/mL (≈ 1.61 µM).

Regarding `O=C(O)c1cc2c([nH]c3ccccc32)c(-c2ccc(CO)o2)n1` [FLAZINE], the IC50 in [20] was 2.37 µM.

In the case of `NC(=O)c1cc2c([nH]c3ccccc32)c(-c2ccc(CO)o2)n1`, the EC50 in data set [20] was determined as 0.38 µM.

Take `CC(C)CC(N)c1nccc2c1[nH]c1cc(Br)ccc12` (centres undefined) [EUDISTALBIN A]: the EC50 in [21] is under 3.2 µg/mL. Moreover, in data set [22], 2.1 µM corresponded to half-maximal inhibition (IC50).

Regarding `Oc1ccc2[nH]c3c(C4=C[C@@]5(O)CC/C=C\CCCCN6CC[C@@H]4[C@@]4(C6)C[C@@]67CCC(CCCN6[C@H]45)O7)nccc3c2c1`, the 50% inhibitory concentration (IC50) in data set [13] came out at 2.3 µM.

Turning to `Oc1ccc2[nH]c3c(C4=C[C@@]5(O)CC/C=C\CCCCN6CC[C@@H]4[C@]4(C[C@@H]7/C=C\CCCCN7[C@H]45)C6)nccc3c2c1` [MANZAMINE Y], it took 0.25 µg/mL (≈ 0.443 µM) to inhibit growth in [16] (MIC).

As for `CSc1c(C2=C(c3c[nH]c4ccc(O)cc34)C(=O)N3c4ccc(O)cc4C4C=C(C(=O)O)N=C2C43)n(C)c[n+]1C` (centres undefined), the MIC in data set [3], in [4] and in data set [5] was 8 µg/mL throughout.

Turning to `O[C@]12C=C(C3c4[nH]c5ccccc5c4CCN3CCc3nccc4c3[nH]c3ccccc34)[C@@H]3CCN(CCCC/C=C\CC1)C[C@@]31C[C@@H]3/C=C\CCCCN3[C@H]12` (some centres undefined), the IC50 worked out at 0.27 µg/mL (≈ 0.361 µM) in [23] and 0.58 µg/mL (≈ 0.776 µM) in data set [24].

These data come from ChEMBL document CHEMBL5244217, “β-Carboline alkaloid monomers and dimers: Occurrence, structural diversity, and biological activities” (Eur J Med Chem, 2018).
